Test results as given in patent US6313132A, “Therapeutically active diarylpropylamines; their pharmaceutically acceptable salts; a method for their preparation and method for their use” (Pharmacia AB, priority 1999, dated 2001).
Where a name gives a salt, the structure may show the parent alone.

biological target: T1, muscarinic receptor (Cavia porcellus, UniProt H0W1Z3); assay: Functional in vitro studies: antagonism of carbachol-induced contraction of urinary bladder smooth muscle strips; type: cell-based, guinea pig; conditions: male guinea pig urinary bladder strips; carbachol agonist; 60 min incubation with antagonist; Krebs-Henseleit pH 7.4, 37° C.; KB from dose ratios (Schild); 60 min; read-out: KB-value
T1 construct: Smooth muscle strips of the urinary bladder were dissected in a Krebs-Henseleit solution; from tissue; host or cells: guinea pig urinary bladder smooth muscle strips
T1 sequence (H0W1Z3 1-590): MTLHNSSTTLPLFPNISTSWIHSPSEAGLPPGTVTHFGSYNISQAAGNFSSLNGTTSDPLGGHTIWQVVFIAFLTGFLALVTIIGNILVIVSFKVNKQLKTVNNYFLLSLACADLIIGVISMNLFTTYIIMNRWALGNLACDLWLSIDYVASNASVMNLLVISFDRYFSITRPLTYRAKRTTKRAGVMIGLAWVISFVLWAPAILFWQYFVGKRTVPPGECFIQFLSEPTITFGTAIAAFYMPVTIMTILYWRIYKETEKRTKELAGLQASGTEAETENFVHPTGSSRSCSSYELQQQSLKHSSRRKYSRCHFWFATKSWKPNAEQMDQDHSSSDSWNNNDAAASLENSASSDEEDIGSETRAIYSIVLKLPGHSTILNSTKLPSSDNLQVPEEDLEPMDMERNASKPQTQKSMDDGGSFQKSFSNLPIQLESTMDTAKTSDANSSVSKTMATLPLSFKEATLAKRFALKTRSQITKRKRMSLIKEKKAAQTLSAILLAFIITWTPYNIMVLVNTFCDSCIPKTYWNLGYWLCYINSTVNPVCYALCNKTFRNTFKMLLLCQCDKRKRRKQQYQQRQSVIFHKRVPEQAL
Experimental: Functional in Vitro Studies
Male guinea pigs, weighing about 300 g, were killed by a blow on the neck and exsanguinated. Smooth muscle strips of the urinary bladder were dissected in a Krebs-Henseleit solution (pH 7.4). The strip preparations were vertically mounted between two hooks in thermostatically controlled (37° C.) organ baths (5 ml). One of the hooks was adjustable and connected to a force transducer (FT 03, Grass Instruments). The Krebs-Henseleit solution was continuously bubbled with carbogen gas (93.5% O2 /6.5% CO2) to maintain the pH at 7.4. Isometric tension was recorded by a Grass Polygraph (Model 79D). A resting tension of approximately 5 mN was initially applied on each muscle strip and the preparations were allowed to stabilise for at least 45 min. The resting tension was repeatedly adjusted and the preparations were washed several times during the stabilisation period.
Carbachol (carbamylcholine chloride) was used as the standard muscarinic receptor agonist. In each experiment, the viability of the preparations and the reproducibility of their contractile responses were initially tested by two consecutive additions of a submaximal concentration (3×10^-6 M) of carbachol. A concentration-response curve to carbachol was then generated by cumulative addition of carbachol to the organ-bath (i.e., stepwise increase of the agonist concentration until the maximal contractile response was reached), followed by washing out and a resting period of at least 15 min. before a fix concentration of the test compound (antagonist) was added to the organ-bath. After 60 min. of incubation with the antagonist, a second cumulative concentration-responsecurve to carbachol was generated. Responses were expressed as percent of the maximal response to carbachol. EC50 -values for carbachol in the absence (control) and presence of antagonist were graphically derived and dose ratios (r) were calculated. Dissociation constants, KB, for the antagonists were calculated using equation (1) (Schild, H. I., Br. J. Pharmacol. Chemother. 1949, 4, 277-280), where [A] is the concentration of test compound:

Compound	Kb [nM]
CC(C)N(CC[C@H](c1ccccc1)c1cc(C(O)CO)ccc1O)C(C)C (single isomer, unassigned; (+)) [Example 15, (+)-N,N-Diisopropyl-3(R)-[5-(1(R*),2-dihydroxyethyl)-2-hydroxyphenyl]-3-phenylpropanamine fumarate]	15

same assay, conditions: male guinea pig urinary bladder strips; carbachol agonist; 60 min incubation with antagonist; Krebs-Henseleit pH 7.4, 37° C.; KB from dose ratios (Schild); read-out: KB-value

Compound	Kb [nM]
Cc1ccc(O)c(C(CCN(C(C)C)C(C)C)c2cccs2)c1 (single isomer, unassigned) [Example 56, (S*) N,N-Diisopropyl-3-(2-hydroxy-5-methylphenyl)-3-(2-thienyl)propanamine]	360
CC(C)N(CCC(c1ccccc1)c1cccs1)C(C)C (centres unmarked) [Example 48, N,N-Diisopropyl-3-phenyl-3-(2-thienyl)propanamine, hydrochloride]	31
CC(C)N(CCC(c1cccs1)c1ccc(O)cc1O)C(C)C (centres unmarked) [Example 42, N,N-Diisopropyl-3-(2,4-dihydroxyphenyl)-3-(2-thienyl)propanamine]	286
CC(C)N(CCC(c1ccccc1)c1cnco1)C(C)C (centres unmarked) [Example 35, N,N-Diisopropyl-3-(oxazol-5-yl)-3-phenylpropanamine hydrochloride]	1770
CCNCc1ccc(O)c([C@H](CCN(C(C)C)C(C)C)c2ccccc2)c1 [Example 30, N,N-Diisopropyl-3-(5-ethylaminomethyl-2-hydroxyphenyl)-3-phenylpropanamine]	139
Cc1ccc(O)c(C(CCN(C)C2CCCCC2)c2ccccc2)c1 (centres unmarked) [Example 3, N-Cyclohexyl-N-methyl-3-(2-hydroxy-5-methylphenyl)-3-phenylpropanamine hydrochloride]	236
CC(C)N(CC[C@H](c1ccccc1)c1cc(CCCN)ccc1O)C(C)C [Example 22, (R)-N,N-Diisopropyl-3-[5-(3-aminopropyl)-2-hydroxyphenyl]-3-phenylpropanamine dihydrochloride]	2.8
